Experimental data reported in paper PMC10594875, “One-Pot De Novo Synthesis of [4Fe-4S] Proteins Using a Recombinant SUF System under Aerobic Conditions” (ACS Synthetic Biology, 2023).

Molecular target: T1, Aconitase (AcnA) (Escherichia coli, UniProt P25516)
T1 construct: cell-free (PUREfrex) synthesis, N-His6 tag removed with HRV protease, [4Fe-4S] cluster matured by SUF system
Assay: LC-MS of citrate consumption, isocitrate dehydrogenase-coupled
Format: biochemical
Settings: coupled with NADP-dependent isocitrate dehydrogenase

T1 sequence (P25516 2-891): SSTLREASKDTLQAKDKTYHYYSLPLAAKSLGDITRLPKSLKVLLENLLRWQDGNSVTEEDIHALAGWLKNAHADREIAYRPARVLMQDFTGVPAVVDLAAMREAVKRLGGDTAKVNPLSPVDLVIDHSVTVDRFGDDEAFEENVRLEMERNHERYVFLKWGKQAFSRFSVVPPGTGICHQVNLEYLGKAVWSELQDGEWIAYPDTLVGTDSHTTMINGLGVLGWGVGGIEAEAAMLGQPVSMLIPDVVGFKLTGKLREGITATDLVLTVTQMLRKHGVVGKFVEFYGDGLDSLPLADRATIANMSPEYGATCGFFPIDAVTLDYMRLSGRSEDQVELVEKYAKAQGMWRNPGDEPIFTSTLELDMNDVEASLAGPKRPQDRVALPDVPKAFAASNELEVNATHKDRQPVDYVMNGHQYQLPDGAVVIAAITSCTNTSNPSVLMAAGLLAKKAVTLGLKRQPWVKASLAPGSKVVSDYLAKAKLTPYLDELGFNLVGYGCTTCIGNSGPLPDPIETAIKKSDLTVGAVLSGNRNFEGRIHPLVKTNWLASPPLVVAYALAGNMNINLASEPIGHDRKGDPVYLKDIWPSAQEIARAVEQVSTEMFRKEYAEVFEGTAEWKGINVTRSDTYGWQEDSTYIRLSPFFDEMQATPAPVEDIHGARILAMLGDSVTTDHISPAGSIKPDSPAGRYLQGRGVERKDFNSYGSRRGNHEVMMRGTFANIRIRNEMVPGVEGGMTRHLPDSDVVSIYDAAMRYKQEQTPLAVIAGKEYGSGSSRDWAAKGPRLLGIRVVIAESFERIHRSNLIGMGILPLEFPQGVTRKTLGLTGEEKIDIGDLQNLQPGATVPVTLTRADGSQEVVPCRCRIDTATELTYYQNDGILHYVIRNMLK

O=C(O)CC(O)(CC(=O)O)C(=O)O [citrate]
LC-MS of citrate consumption, isocitrate dehydrogenase-coupled: concurring citrate consumption and alpha-ketoglutarate production in the assays with AcnA purified
